# Target: T1, mutant AR (Homo sapiens, UniProt P10275, T878A)
# T1 construct: LNCaP without transfection; endogenous in cells; host or cells: LNCaP
# T1 sequence (P10275 1-920 T878A): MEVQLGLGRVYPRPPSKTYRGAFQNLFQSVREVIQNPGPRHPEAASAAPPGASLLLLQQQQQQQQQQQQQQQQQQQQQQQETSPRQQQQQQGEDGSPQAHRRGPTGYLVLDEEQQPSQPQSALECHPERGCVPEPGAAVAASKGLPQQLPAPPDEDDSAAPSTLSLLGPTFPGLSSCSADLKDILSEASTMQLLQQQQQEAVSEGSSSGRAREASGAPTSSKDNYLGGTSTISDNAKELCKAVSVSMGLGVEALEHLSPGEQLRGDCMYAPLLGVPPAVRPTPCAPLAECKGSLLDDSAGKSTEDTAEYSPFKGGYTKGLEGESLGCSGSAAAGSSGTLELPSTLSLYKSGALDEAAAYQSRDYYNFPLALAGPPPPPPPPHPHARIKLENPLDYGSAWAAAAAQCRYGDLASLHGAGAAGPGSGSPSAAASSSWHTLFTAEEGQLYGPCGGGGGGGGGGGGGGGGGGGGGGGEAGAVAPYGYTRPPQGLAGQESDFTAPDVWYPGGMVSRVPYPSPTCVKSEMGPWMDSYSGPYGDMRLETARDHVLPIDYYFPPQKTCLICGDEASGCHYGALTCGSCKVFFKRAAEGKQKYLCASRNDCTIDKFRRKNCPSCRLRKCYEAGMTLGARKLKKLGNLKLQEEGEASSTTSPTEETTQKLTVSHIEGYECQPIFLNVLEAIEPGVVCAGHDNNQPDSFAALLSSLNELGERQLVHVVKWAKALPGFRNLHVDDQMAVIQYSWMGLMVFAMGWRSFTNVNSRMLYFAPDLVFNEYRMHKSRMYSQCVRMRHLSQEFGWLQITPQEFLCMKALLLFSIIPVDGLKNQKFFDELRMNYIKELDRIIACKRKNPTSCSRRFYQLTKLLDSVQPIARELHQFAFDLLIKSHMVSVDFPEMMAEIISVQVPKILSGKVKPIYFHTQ
# Assay: AR transcription, MMTV-Luc reporter in LNCaP cells
# Assay type: cell-based
# Conditions: MMTV-Luc
# Experimental: Cell Culture, Transfection, and Reporter Gene Assay. The human prostate cancer cell lines, LNCaP, PC-3, and DU145, and non-prostate cancer cell line COS-1 were maintained in RPMI or Dulbecco's modified Eagle's medium (DMEM) (Life Technologies) supplemented with 10% fetal bovine serum (FBS). […] Briefly, cells seeded to reach a density of 50-60% confluence in 12 well tissue culture plates were transfected with 1.5 μg of DNA according to “SuperFect transfection” instructions (Qiagen). After 2-3 h incubation, cells were treated with medium supplemented with charcoal-stripped FBS containing either ethanol or ligands for 24 h. The cells were then harvested and whole cell extracts were used for Luc assay. The Luc activity was determined using a Dual-Luciferase Reporter Assay System (Promega) and luminometer.
# The pSG5-AR was co-transfected in COS-1 cells. […] Values were obtained from the mean±SD of at least three determinations. DU145 cells were transfected with the pSG5-AR and MMTV-Luc in the presence or absence of pSG5-ARA70. […] Values were obtained for the mean±SD of at least three determinations.
smiles,measurement,setting,value
"CC(=O)O[C@H]1C=C[C@@]2(C)C(=CC[C@@H]3[C@@H]2CC[C@@]2(C)[C@H]3CCC23OCCO3)C1 [ADEK, 3β-acetoxy-17,17-ethylenedioxyandrosta-1,5-diene]",DHT-induced mutant AR transcription suppressed to (DHT = 100%),"1 nM DHT, dose-dependent",17%
same,agonist / androgenic activity on mutant AR transcription (in words),HF at 10 μM,lower than that of casodex

# — patent US7638509B2, “Diene compounds and formulations” (priority 2003, dated 2009)
